Experimental data taken from patent US20150245597A1, “HETEROZYGOUS MOUSE WITH AN INACTIVATED BRD1 ALLELE AND USES IN PSYCHIATRY” (CAPNOVA A/S, priority 2012, published 2015).

How the values were obtained:
Assay type in all cases: in vivo, mouse
R mice [1] = test: Psychotropic drug-induced locomotor hyperactivity test
Protocol: Psychotropic drug-induced locomotor hyperactivity was established by injections with PCP (1.3, 2.5, and 5 mg/kg s.c.), amphetamine (1.3, 2.5, and 5 mg/kg s.c.) and cocaine (10, 20, and 30 mg/kg s.c.) as opposing saline vehicle s.c. and measured by recording both horizontal locomotor activity and rearing activity in an automated photo-cell equipped home-cage.

R mice [2] = test: Pre-Pulse Inhibition (PPI) test during pharmacological challenge
Protocol: Gaiting and re-activity of the startle reflex was investigated by Acoustic Startle Response (ASR) and Pre-Pulse Inhibition (PPI) tests. In addition to baseline scores mice were also tested during pharmacological challenge; PCP (2.5 and 5 mg/kg s.c.) and amphetamine (2.5 and 5 mg/kg s.c.).

R mice [3] = test: Tail suspension test (TST) with anti-depressants; conditions: for depressive equivalent behaviours during TST, difference between R and W mice: imipramine 1 mg/kg and 10 mg/kg, Fluoxetine 5 mg/kg, SC
Protocol: (§2) Depressive equivalent behaviours were assessed by forced swim test (FST) and tail suspension test (TST). Depressive equivalent behaviours (FST and TST) were assessed with anti-depressants (e.g. imipramine at two doses: 1 mg/kg and 10 mg/kg and Fluoxetine: 5 mg/kg, and with normal saline vehicle subcutaneous (SC) injections.

R mice [4] = test: Forced swim test (FST) with anti-depressants; conditions: for depressive equivalent behaviours during FST, difference between R and W mice: imipramine 1 mg/kg and 10 mg/kg, Fluoxetine 5 mg/kg, SC
Protocol: as §2

R mice [5] = test: Y-maze continuous alternation test with PCP challenge; conditions: R mice vs W, PCP 1.3 mg/kg s.c., p<0.05
Protocol: (§1) Spatial learning and spatial working memory was tested in the Morris Water Maze (MWM). Learning was scored based on latency to escape while memory was scored based on frequency and time spent in each zone of the maze. Exploratory and working memory components was addressed by various types of y-maze alternation tasks including spontaneous alternation test with dark phase testing, continuous alternation, and delayed alternation. Both baseline and induced behaviour (PCP 1.3 mg/kg s.c. and 2.5 mg/kg s.c.) was assessed. In all Y-maze tasks, alternation was calculated as the percentage of right choices out of the total arm entries.

R mice [6] = test: Y-maze spontaneous alternation test with PCP challenge; conditions: R mice vs W, PCP 1.3 mg/kg s.c., p<0.01
Protocol: as §1

[7] = Imipramine 10 mg/kg compared with Fluoxetine

CC(N)Cc1ccccc1 (stereo not shown) [Amphetamine, amphetamine]
drug-induced locomotor activity response (horizontal and rearing activity) (R mice [1]; R males compared to W mice, amphetamine 5 mg/kg s.c.): obvious hypoactivity
differences between R and W mice in PPI test when challenged (R mice [2]; amphetamine at any dose (2.5 and 5 mg/kg s.c.)): No differences

CNCCC(Oc1ccc(C(F)(F)F)cc1)c1ccccc1 (stereo not shown) [Fluoxetine]
depressive equivalent behaviours during TST, difference between R and W mice (R mice [3]): reversed
depressive equivalent behaviours during FST, difference between R and W mice (R mice [4]): reversed

CN(C)CCCN1c2ccccc2CCc2ccccc21 [Imipramine, imipramine]
effect size on depressive equivalent behaviours (TST) (R mice [3]; [7]): larger effect sizes than Fluoxetine
depressive equivalent behaviours during TST, difference between R and W mice (R mice [3]): reversed
effect size on depressive equivalent behaviours (FST) (R mice [4]; [7]): larger effect sizes than Fluoxetine
depressive equivalent behaviours during FST, difference between R and W mice (R mice [4]): reversed

c1ccc(C2(N3CCCCC3)CCCCC2)cc1 [PCP]
drug-induced locomotor hyperactivity (horizontal and rearing activity) (R mice [1]; R males vs W mice, PCP 5 mg/kg s.c.): clear sensitivity
alternation in the continuous alternation test (R mice [5]): significant reduction
inhibition of the startle in the PPI test (R mice [2]; R males vs W mice, high prepulse intensities (15 db above background noise level), PCP 5 m/kg s.c.): reduced
Prepulse inhibition, response of R mice as compared to W littermates (R mice [2]; Table 1, males only with PCP): Decreased
alternation in the spontaneous alternation test (R mice [6]): significant reduction
